Molecular target: neurotensin receptor 1 (NTR1) (Homo sapiens (Human), UniProt P30989)
Test: NTR1 dose response, high-content imaging beta-arrestin-GFP assay in NTR1-U2OS cells
Type: cell-based
Details: read-out: EC50
Description: The cell lines utilized in the high-content imaging assays, which include the NTR1-, NTR2-, and GPR35-U2OS osteosarcomas, were obtained from the laboratory of Dr. Lawrence Barak at the Duke University Medical Center. The media used in the culture of the cell lines, as well as the assays themselves, consisted of Minimum Essential Medium (15-010-CM) and L-glutamine (25-005-CL) from Cellgro/Mediatech (Manassas, Va.), fetal bovine serum (SH30396.03) from Hyclone (Logan, Utah), penicillin-streptomycin solution (PS-20) from Omega Scientific in Tarzana, Calif., G418 (ant-gn-1) from Invivogen (San Diego, Calif.), and zeocin (R250-01) from Invitrogen (Carlsbad, Calif.). Cell lines were cultured in T225 tissue culture flasks (431082) supplied by Corning (Corning, N.Y.). Additional reagents employed include Dulbecco's Phosphate-Buffered Saline (DPBS) (21-031CV) from Cellgro/Mediatech, Trypsin-EDTA 0.05% (25300) from Invitrogen, paraformaldehyde (30528954) from Acros Organics (Geel, Belgium), Hoechst 33342 (H3570) from Invitrogen. The high-content assays were run in 1536-well plates (29326) supplied by Aurora Biotechnology (Poway, Calif.) and utilized aluminum plate seals (T592100) from E&K Scientific (Santa Clara, Calif.). […]
The high-content imaging based NTR1 primary screen in 1536-well format was utilized to assay the MLSMR library of chemical entities in the following manner. On day one, 4 uL of a cell suspension containing 350,000 NTR1-U2OS cells per mL is added to each well of a 1536-well assay plate. Cells are plated in MEM medium containing 2.5% Fetal Bovine Serum, 1% Penicillin/Streptomycin solution, 1% L-Glutamine, 400 ug/mL G418, and 200 ug/mL Zeocin. The assay plates are then incubated overnight at 37° C., under 5% CO2. Following the overnight incubation, a volume of 60 nL of the compounds at 2 mM in DMSO (final 20 μM, 1% DMSO) was transferred to columns 5-48 of the assay plates using a LabCyte Echo Liquid Handler. Next, 60 nL of DMSO were dispensed to columns 1-4, which served as the positive and neutral control wells. […] The assay plates were centrifuged on an Eppendorf 5810 centrifuge at 1000 rpm for 1 min to ensure even liquid levels in the wells of the assay plates. The assay plates were then returned to the incubator for 1 hour. Following the hour-long incubation at 37° C., the cells in each well were fixed with 4 uL of 6% paraformaldehyde added with a Multidrop Combi. The assay plates were centrifuged as before and incubated at room temperature for 1 hour. On the Kalypsys, plates were then aspirated down to 2.5 uL per well and washed twice with 11 uL per well of DPBS, followed by a final aspiration to 2.5 uL per well. On the Combi dispenser, 5 uL of 5 ug/mL Hoechst 33342 diluted in DPBS was added to each well of assay plates. The plates were again centrifuged as previously described, sealed, and incubated for at least 1 hour prior to being loaded on a PerkinElmer Opera QEHS.
Image acquisition was performed with a 45 plate capacity loader/stacker and the following settings: 40×0.6 NA air objective, acquisition camera set to 2-by-2 binning for an image size of 688 by 512 pixels, beta-arrestin-GFP acquired using 488 nm laser excitation and 540/75 nm emission filters, DAPI (nuclei) using 365 nm Xenon lamp excitation and 450/50 nm emission filters, 3 fields per well. Image analysis was performed using the Acapella Spot Detection Algorithm. For analysis settings and the metrics employed in the data analyses, please refer to supplemental information.
Compounds that were successfully confirmed in quadruplicate at 20 uM were then run in dose response in the primary assay. As with the single concentration hit confirmation, the assay was performed in an identical manner as the primary screen with the following modifications. […]

neurotensin receptor 1 (NTR1), sequence (P30989 whole entry, species assumed): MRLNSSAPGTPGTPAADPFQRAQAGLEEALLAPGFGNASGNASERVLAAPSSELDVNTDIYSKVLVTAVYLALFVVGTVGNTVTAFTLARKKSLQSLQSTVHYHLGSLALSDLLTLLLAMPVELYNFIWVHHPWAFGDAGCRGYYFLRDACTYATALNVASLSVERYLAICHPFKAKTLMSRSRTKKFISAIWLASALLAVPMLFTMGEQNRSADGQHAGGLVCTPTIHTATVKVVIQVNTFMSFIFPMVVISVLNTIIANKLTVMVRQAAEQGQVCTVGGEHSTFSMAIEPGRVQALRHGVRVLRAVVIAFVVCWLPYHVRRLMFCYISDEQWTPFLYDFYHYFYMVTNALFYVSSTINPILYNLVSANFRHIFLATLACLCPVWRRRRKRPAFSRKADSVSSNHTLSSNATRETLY

Row | Structure (SMILES) | EC50
1 | COc1ccccc1C1CCN(c2nc(C3(C)CCCC3)nc3ccc(N(C)CCO)cc23)CC1 [Example 51, 2-{[4-[4-(2-methoxy-phenyl)-piperidin-1-yl]-2-(1-methyl-cyclopentyl)-quinazolin-6-yl]-methyl-amino}-ethanol] | 2 to 10 µM
2 | COc1ccccc1C1CCN(c2nc(C3(C)CCCC3)nc3ccc(N(C)CCN4CCOCC4)cc23)CC1 [Example 52] | 2 to 10 µM
3 | CN(C)c1ccccc1C1CCN(c2nc(C3(C)CCCC3)nc3ccc(N(C)CCO)cc23)CC1 [Example 53, {[4-[4-(2-Dimethylamino-phenyl)-piperidin-1-yl]-2-(1-methyl-cyclopentyl)-quinazolin-6-yl]-methyl-amino}-ethanol] | 2 to 10 µM
4 | CN(C)c1ccccc1C1CCN(c2nc(C3(C)CCCC3)nc3ccc(N(C)CCN4CCOCC4)cc23)CC1 [Example 54, [4-[4-(2-dimethylamino-phenyl)-piperidin-1-yl]-2-(1-methyl-cyclopentyl)-quinazolin-6-yl]-methyl-(2-morpholin-4-yl-ethyl)-amine] | 2 to 10 µM
5 | COc1ccccc1C1CCN(c2nc(C3(C(F)(F)F)CCCC3)nc3ccc(N(C)CCO)cc23)CC1 [Example 55, 2-{[4-[4-(2-methoxy-phenyl)-piperidin-1-yl]-2-(1-trifluoromethyl-cyclopentyl)-quinazolin-6-yl]-methyl-amino}-ethanol] | 2 to 10 µM
6 | COc1ccccc1C1CCN(c2nc(C3(C(F)(F)F)CCCC3)nc3ccc(N(C)CCN4CCOCC4)cc23)CC1 [Example 56, [4-[4-(2-methoxy-phenyl)-piperidin-1-yl]-2-(1-trifluoromethyl-cyclopentyl)-quinazolin-6-yl]-methyl-(2-morpholin-4-yl-ethyl)-amine] | 2 to 10 µM
7 | CN(C)c1ccccc1C1CCN(c2nc(C3(C(F)(F)F)CCCC3)nc3ccc(N(C)CCN4CCOCC4)cc23)CC1 [Example 58, [4-[4-(2-dimethylamino-phenyl)-piperidin-1-yl]-2-(1-trifluoromethyl-cyclopentyl)-quinazolin-6-yl]-methyl-(2-morpholin-4-yl-ethyl)-amine] | 2 to 10 µM
8 | COc1ccccc1C1CCN(c2nc(C3(C(F)(F)F)CCC3)nc3ccc(N(C)CCN4CCOCC4)cc23)CC1 [Example 64, [4-[4-(2-methoxy-phenyl)-piperidin-1-yl]-2-(1-trifluoromethyl-cyclobutyl)-quinazolin-6-yl]-methyl-(2-morpholin-4-yl-ethyl)-amine] | > 10 µM
9 | CN(C)c1ccccc1C1CCN(c2nc(C3(C(F)(F)F)CCC3)nc3ccc(N(C)CCO)cc23)CC1 [Example 65, 2-{[4-[4-(2-Dimethylamino-phenyl)-piperidin-1-yl]-2-(1-trifluoromethyl-cyclobutyl)-quinazolin-6-yl]-methyl-amino}-ethanol] | 2 to 10 µM
10 | CN(C)c1ccccc1C1CCN(c2nc(C3(C(F)(F)F)CCC3)nc3ccc(N(C)CCN4CCOCC4)cc23)CC1 [Example 66, [4-[4-(2-dimethylamino-phenyl)-piperidin-1-yl]-2-(1-trifluoromethyl-cyclobutyl)-quinazolin-6-yl]-methyl-(2-morpholin-4-yl-ethyl)-amine] | > 10 µM
11 | CN(C)c1ccccc1C1CCN(c2nc(C3(C)CCC3)nc3ccc(N(C)CCN4CCOCC4)cc23)CC1 [Example 67, [4-[4-(2-dimethylamino-phenyl)-piperidin-1-yl]-2-(1-methyl-cyclobutyl)-quinazolin-6-yl]-methyl-(2-morpholin-4-yl-ethyl)-amine] | > 10 µM
12 | COc1ccccc1C1CCN(c2nc(C3(C)CCC3)nc3ccc(N(C)CCO)cc23)CC1 [Example 70, 2-{[4-[4-(2-Methoxy-phenyl)-piperidin-1-yl]-2-(1-methyl-cyclobutyl)-quinazolin-6-yl]-methyl-amino}-ethanol] | 0.5 to 2 µM
13 | COc1ccccc1C1CCN(c2nc(C3(F)CCCC3)nc3ccc(N(C)CCN4CCOCC4)cc23)CC1 [Example 71, {2-(1fluoro-cyclopentyl)-4-[4-(2-methoxy-phenyl)-piperidin-1-yl]-quinazolin-6-yl}-methyl-(2-morpholin-4-yl-ethyl)-amine] | 2 to 10 µM
14 | COc1ccccc1C1CCN(c2nc(C3(F)CCCC3)nc3ccc(N(C)CCO)cc23)CC1 [Example 72, 2-({2-(1-fluoro-cyclopentyl)-4-[4-(2-methoxy-phenyl)-piperidin-1-yl]-quinazolin-6-yl}-methyl-amino)-ethanol] | 0.5 to 2 µM
15 | CN(C)c1ccccc1C1CCN(c2nc(C3(F)CCCC3)nc3ccc(N(C)CCN4CCOCC4)cc23)CC1 [Example 73, [4-[4-(2-dimethylamino-phenyl)-piperidin-1-yl]-2-(1-fluoro-cyclopentyl)-quinazolin-6-yl]-methyl-(2-morpholin-4-yl-ethyl)-amine] | 2 to 10 µM
16 | CN(C)c1ccccc1C1CCN(c2nc(C3CCCC3)nc3ccc(N(C)CCN4CCOCC4)cc23)CC1 [Example 74, {2-cyclopentyl-4-[4-(2-dimethylamino-phenyl)-piperidin-1-yl]-quinazolin-6-yl}-methyl-(2-morpholin-4-yl-ethyl)-amine] | 2 to 10 µM

Second part, the compound after the results:

Row | EC50 | Structure (SMILES)
17 | 0.5 to 2 µM | CN(C)c1ccccc1C1CCN(c2nc(C3(C(F)(F)F)CCCC3)nc3ccc(N(C)CCO)cc23)CC1 [Example 57, 2-{[4-[4-(2-dimethylamino-phenyl)-piperidin-1-yl]-2-(1-trifluoromethyl-cyclopentyl)-quinazolin-6-yl]-methyl-amino}-ethanol]
18 | < 0.5 µM | COc1ccccc1C1CCN(c2nc(C3(F)CCC3)nc3ccc(N(C)CCO)cc23)CC1 [Example 59, 2-({2-(1-fluoro-cyclobutyl)-4-[4-(2-methoxy-phenyl)-piperidin-1-yl]-quinazolin-6-yl}-methyl-amino)-ethanol]
19 | < 0.5 µM | COc1ccccc1C1CCN(c2nc(C3(F)CCC3)nc3ccc(N(C)CCN4CCOCC4)cc23)CC1 [Example 60, {2-(1-fluoro-cyclobutyl)-4-[4-(2-methoxy-phenyl)-piperidin-1-yl]-quinazolin-6-yl}-methyl-(2-morpholin-4-yl-ethyl)-amine]
20 | < 0.5 µM | CN(C)c1ccccc1C1CCN(c2nc(C3(F)CCC3)nc3ccc(N(C)CCO)cc23)CC1 [Example 61, 2-{[4-[4-(2-dimethylamino-phenyl)-piperidin-1-yl]-2-(1-fluoro-cyclobutyl)-quinazolin-6-yl]-methyl-amino}-ethanol]
21 | 0.5 to 2 µM | CN(C)c1ccccc1C1CCN(c2nc(C3(F)CCC3)nc3ccc(N(C)CCN4CCOCC4)cc23)CC1 [Example 62, [4-[4-(2-dimethylamino-phenyl)-piperidin-1-yl]-2-(1-fluoro-cyclobutyl)-quinazolin-6-yl]-methyl-(2-morpholin-4-yl-ethyl)-amine]
22 | 0.5 to 2 µM | COc1ccccc1C1CCN(c2nc(C3(C(F)(F)F)CCC3)nc3ccc(N(C)CCO)cc23)CC1 [Example 63, 2-{[4-[4-(2-methoxy-phenyl)-piperidin-1-yl]-2-(1-trifluoromethyl-cyclobutyl)-quinazolin-6-yl]-methyl-amino}-ethanol]
23 | 0.5 to 2 µM | CN(C)c1ccccc1C1CCN(c2nc(C3(C)CCC3)nc3ccc(N(C)CCO)cc23)CC1 [Example 68, 2-{[4-[4-(2-dimethylamino-phenyl)-piperidin-1-yl]-2-(1-methyl-cyclobutyl)-quinazolin-6-yl]-methyl-amino}-ethanol]
24 | 0.5 to 2 µM | COc1ccccc1C1CCN(c2nc(C3(C)CCC3)nc3ccc(N(C)CCN4CCOCC4)cc23)CC1 [Example 69, [4-[4-(2-methoxy-phenyl)-piperidin-1-yl]-2-(1-methyl-cyclobutyl)-quinazolin-6-yl]-methyl-(2-morpholin-4-yl-ethyl)-amine]
